A short description of the series: Contact angle on coated gold. It counts as physicochemical. The settings on record: molecule alone at 10^−3M, soaking 30 minutes.

Protocol: Degrease the parts by washing in a solvent (acetone or IPA) under ultrasound for 5 minutes then dry the parts under a stream of hot air.
Deposit • Place the part or parts in a container with an adapted shape • Cover the part or parts with coating solution (thiol, BP or BP/thiol-PFPE mixture), • Incubate between 5 minutes and 360 minutes, • Eliminate the supernatant—remove the part, • The part is drip dried (centrifugation).
Dehydration—Rinsing • The part which received the deposit is placed in an oven at 120° C. for a period ranging from 6 to 15 h (only for rubies and silicon), • The part is brought back to room temperature then immersed in IPA under ultrasound for 2 minutes, • The part is dried under a stream of hot air. […]
The lipophobic effect was evaluated by measuring the contact angles of a test oil having surface tension of 33 mN/m on different surfaces.
According to the deposit procedure described in paragraph 3, the materials were treated by the mixture of the thiol molecule I.3. with the BP molecule II.1. dissolved in IPA. The contact angles were measured before and after treatment of the surface. […]
The properties of thiol and bisphosphonate molecules in isolation were measured on the surfaces of steel and gold-plated substrates using solutions at 10^−3 M and in isopropanol in accordance with the protocol described in example 3 above, with a soaking time of 5 minutes.

`O=C(NCCS)C(F)(F)C(F)(F)C(F)(F)C(F)(F)C(F)(F)C(F)(F)C(F)(F)F` [I.5]: the “contact angle of the gold-plated brass part with the test oil” value came to 67.6 ± 3.6° (solvent IPA) and 49.5 ± 2.5° (solvent MMCC (Biosane T212)).

Source of the values: patent US20140000476A1, “HYDROPHOBIC AND LIPOPHOBIC COMPOSITION COMPRISING COMPOUNDS HAVING A BISPHOSPHONIC AND THIOL GROUP” (SURFACTIS TECHNOLOGIES, priority 2010, published 2014).
